Experimental data as given in PMC9538320 (Protein Science : A Publication of the Protein Society, 2022).

Biological target: SARS-CoV-2 protein 7a ectodomain (protein 7a ECD) (Severe acute respiratory syndrome coronavirus 2, UniProt P0DTC7)
Test: biochemical

Chain of SARS-CoV-2 protein 7a ectodomain (protein 7a ECD) (P0DTC7 16-95): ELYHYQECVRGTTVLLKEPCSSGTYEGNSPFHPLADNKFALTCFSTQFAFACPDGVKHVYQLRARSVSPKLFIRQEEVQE

Work on `C=CC1=C(C)C2=Cc3c(C=C)c(C)c4[n]3[Fe]([Cl])[n]3c(c(C)c(CCC(=O)O)c3=CC3=NC(=C4)C(C)=C3CCC(=O)O)=CC1=N2` [heme] yielded a Kd of 469 ± 27 nM.
